Assay results reported in ChEMBL document CHEMBL1201862, “PubChem BioAssay data set” (2004).
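In this assay, cells in 96-well plates receive the compound at five concentrations for 48 hours. Endpoints are linearly interpolated between the surrounding concentrations. Here, GI50 denotes the concentration required for 50% inhibition of growth.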 Activity calls are given as the source filed them. No stated cut-off is given here; in the data, active = GI50 up to about 1.1 µM and inactive = higher.

Key:
Experiment in all cases: NCI-60 cell line screen, 48 h
SF-539 = tested on: SF-539
HCT-116 = tested on: HCT-116
OVCAR-4 = tested on: OVCAR-4
HCC 2998 = tested on: HCC 2998
M14 = tested on: M14
IGROV-1 = tested on: IGROV-1
EKVX = tested on: EKVX
HT-29 = tested on: HT-29
KM12 = tested on: KM12
M19-MEL = tested on: M19-MEL
K562 = tested on: K562
OVCAR-8 = tested on: OVCAR-8
SNB-19 = tested on: SNB-19
UO-31 = tested on: UO-31
SK-MEL-2 = tested on: SK-MEL-2
RPMI-8226 = tested on: RPMI-8226
KM-20L2 = tested on: KM-20L2
MOLT-4 = tested on: MOLT-4
SR = tested on: SR
786-0 = tested on: 786-0
SK-OV-3 = tested on: SK-OV-3
HOP-62 = tested on: HOP-62
U-251 = tested on: U-251
SNB-78 = tested on: SNB-78
SF-268 = tested on: SF-268
SK-MEL-28 = tested on: SK-MEL-28
DMS-114 = tested on: DMS-114
TK-10 = tested on: TK-10
COLO 205 = tested on: COLO 205
NCI-H23 = tested on: NCI-H23
XF498 = tested on: XF498
OVCAR-3 = tested on: OVCAR-3
A549 = tested on: A549
RXF 393 = tested on: RXF 393
OVCAR-5 = tested on: OVCAR-5
UACC-62 = tested on: UACC-62
SF-295 = tested on: SF-295
CAKI-1 = tested on: CAKI-1
HOP-18 = tested on: HOP-18
Malme-3M = tested on: Malme-3M
DMS-273 = tested on: DMS-273
MDA-MB-231 = tested on: MDA-MB-231
HL-60 = tested on: HL-60
MDA-MB-435 = tested on: MDA-MB-435
NCI-H522 = tested on: NCI-H522
SNB-75 = tested on: SNB-75
HCT-15 = tested on: HCT-15
LOX IMVI = tested on: LOX IMVI
SW-620 = tested on: SW-620
BT-549 = tested on: BT-549
NCI/ADR-RES = tested on: NCI/ADR-RES
MDA-N = tested on: MDA-N
HOP-92 = tested on: HOP-92
UACC-257 = tested on: UACC-257
A498 = tested on: A498
PC-3 = tested on: PC-3
CCRF-CEM = tested on: CCRF-CEM
ACHN = tested on: ACHN
NCI-H226 = tested on: NCI-H226
SK-MEL-5 = tested on: SK-MEL-5
Hs-578T = tested on: Hs-578T
DLD-1 = tested on: DLD-1
NCI-H460 = tested on: NCI-H460
MCF7 = tested on: MCF7
SN12C = tested on: SN12C
T47D = tested on: T47D

With `C/C(=N\NC(N)=S)c1ccc(C2CCCCC2)cc1` the GI50 (SF-539) was 19800 nM (inactive), the GI50 (HCT-116) was 14400 nM (inactive) and the GI50 (OVCAR-4) was 14400 nM (inactive). The GI50 (HCC 2998) was 16400 nM (inactive), the GI50 (M14) was 9590 nM (inactive) and the GI50 (IGROV-1) was 12000 nM (inactive). For the same compound, the GI50 (EKVX) was 71400 nM (inactive), the GI50 (HT-29) was 10500 nM (inactive) and the GI50 (KM12) was 15900 nM (inactive). For the same compound, the GI50 (M19-MEL) was 27500 nM (inactive), the GI50 (K562) was 12200 nM (inactive) and the GI50 (OVCAR-8) was 15000 nM (inactive). The GI50 (SNB-19) was 40500 nM (inactive), the GI50 (UO-31) was 13000 nM (inactive) and the GI50 (SK-MEL-2) was 13500 nM (inactive). The GI50 (RPMI-8226) was 22200 nM (inactive), the GI50 (KM-20L2) was 14700 nM (inactive) and the GI50 (MOLT-4) was 4580 nM (inactive). For the same compound, the GI50 (SR) was 21400 nM (inactive), the GI50 (786-0) was 13600 nM (inactive) and the GI50 (SK-OV-3) was 32000 nM (inactive). For the same compound, the GI50 (HOP-62) was 37200 nM (inactive), the GI50 (U-251) was 19000 nM (inactive) and the GI50 (SNB-78) was 25900 nM (inactive). For the same compound, the GI50 (SF-268) was > 100000 nM (inactive), the GI50 (SK-MEL-28) was 16600 nM (inactive) and the GI50 (DMS-114) was 7030 nM (inactive). The GI50 (TK-10) was 26000 nM (inactive), the GI50 (COLO 205) was 12000 nM (inactive) and the GI50 (NCI-H23) was 16900 nM (inactive). The GI50 (XF498) was 113 nM (active), the GI50 (OVCAR-3) was 14600 nM (inactive) and the GI50 (A549) was 43400 nM (inactive). For the same compound, the GI50 (RXF 393) was 12600 nM (inactive), the GI50 (OVCAR-5) was 11100 nM (inactive) and the GI50 (UACC-62) was 14200 nM (inactive). For the same compound, the GI50 (SF-295) was 4560 nM (inactive), the GI50 (CAKI-1) was 25600 nM (inactive) and the GI50 (HOP-18) was 32100 nM (inactive). The GI50 (Malme-3M) was 18500 nM (inactive).
In the case of `COc1cc([C@H]2c3[nH]c4ccccc4c3C[C@H]3COC(=O)N32)cc(OC)c1O`, the GI50 (DMS-273) is reported as 16.3 nM (active), the GI50 (MDA-MB-231) is reported as 40.8 nM (active) and the GI50 (SF-539) is reported as 39.6 nM (active). The GI50 (HL-60) was 17.6 nM (active), the GI50 (HCT-116) was 34.4 nM (active) and the GI50 (MDA-MB-435) was < 10 nM (active). The GI50 (OVCAR-4) was 39300 nM (inactive), the GI50 (HCC 2998) was 143 nM (active) and the GI50 (M14) was < 38.6 nM (active). The GI50 (IGROV-1) was 50.2 nM (active), the GI50 (EKVX) was 800 nM (active) and the GI50 (HT-29) was 22.8 nM (active). The GI50 (KM12) was 20.2 nM (active), the GI50 (K562) was 15.3 nM (active) and the GI50 (OVCAR-8) was 131 nM (active). The GI50 (SNB-19) was 4900 nM (inactive), the GI50 (UO-31) was 246 nM (active) and the GI50 (NCI-H522) was 15 nM (active). For the same compound, the GI50 (SNB-75) was 32.4 nM (active), the GI50 (HCT-15) was 25.6 nM and the GI50 (RPMI-8226) was 40.4 nM (active). The GI50 (LOX IMVI) was < 10 nM (active), the GI50 (KM-20L2) was 40 nM (active) and the GI50 (MOLT-4) was 48.8 nM (active). The GI50 (SR) was 13.2 nM (active), the GI50 (786-0) was 145 nM (active) and the GI50 (SW-620) was 26.8 nM (active). For the same compound, the GI50 (BT-549) was 29200 nM (inactive), the GI50 (HOP-62) was 46.2 nM (active) and the GI50 (NCI/ADR-RES) was 66.7 nM (active). The GI50 (U-251) was 32.6 nM (active), the GI50 (SNB-78) was 2300 nM (inactive) and the GI50 (SF-268) was 22.1 nM (active). For the same compound, the GI50 (MDA-N) was < 10 nM (active), the GI50 (HOP-92) was 2270 nM (inactive) and the GI50 (UACC-257) was > 100000 nM (inactive). For the same compound, the GI50 (SK-MEL-28) was 1660 nM (inactive), the GI50 (A498) was 50.9 nM (active) and the GI50 (TK-10) was 807 nM (active). The GI50 (COLO 205) was 166 nM (active), the GI50 (PC-3) was 37.8 nM (active) and the GI50 (CCRF-CEM) was 20.9 nM (active). For the same compound, the GI50 (NCI-H23) was 74.8 nM (active), the GI50 (ACHN) was 163 nM (active) and the GI50 (XF498) was 67.1 nM (active). For the same compound, the GI50 (OVCAR-3) was < 10 nM (active), the GI50 (A549) was 79.2 nM (active) and the GI50 (NCI-H226) was 422 nM (active). The GI50 (RXF 393) was 40.5 nM (active), the GI50 (OVCAR-5) was 13300 nM (inactive) and the GI50 (UACC-62) was 20.9 nM (active). The GI50 (SK-MEL-5) was 19.3 nM (active), the GI50 (Hs-578T) was 33.5 nM (active) and the GI50 (SF-295) was 18.9 nM (active). The GI50 (DLD-1) was 132 nM (active), the GI50 (NCI-H460) was 31.2 nM (active) and the GI50 (MCF7) was < 10 nM (active). For the same compound, the GI50 (SN12C) was 2430 nM (inactive), the GI50 (CAKI-1) was 39.5 nM (active) and the GI50 (HOP-18) was 64300 nM (inactive). The GI50 (Malme-3M) was 3950 nM (inactive) and the GI50 (T47D) was 42400 nM (inactive).
